# Columns and labels:
# [1] = Inhibition of porcine succinate-cytochrome c reductase using succinate and cytochrome c as substrates by spectrophotometric based assay; set-up: species or system Sus scrofa
# [2] = organism: Sus scrofa; test: Inhibition of porcine heart succinate-cytochrome c reductase at 10 uM using succinate and cytochrome c as substrates by spectrophotometric based assay relative to control
# [3] = organism: Sus scrofa; test: Inhibition of porcine cytochrome b-c1 complex at 10 uM using DBH2 and cytochrome c as substrates by spectrophotometric based assay relative to control
# [4] = Inhibition of porcine succinate-ubiquinone oxidoreductase using succinate and 2,6-dichloroindophenol as substrates by spectrophotometric based assay; set-up: species or system Sus scrofa
# [5] = Inhibition of porcine cytochrome b-c1 complex using DBH2 and cytochrome c as substrates by spectrophotometric based assay; set-up: species or system Sus scrofa
# [6] = organism: Sus scrofa; test: Inhibition of porcine succinate-ubiquinone oxidoreductase at 10 uM using succinate and 2,6-dichloroindophenol as substrates by spectrophotometric based assay relative to control
smiles,measurement,setting,value
O=S(=O)(Nc1cc(Cl)c(Oc2ccc(Cl)cc2Cl)c(Cl)c1)c1c(Cl)cc(Cl)cc1Cl,IC50,[1],1.12 µM
O=S(=O)(Nc1ccc(Oc2ccc(Cl)cc2Cl)c(Cl)c1)c1ccc(C(F)(F)F)cc1Cl,IC50,[1],1.08 µM
O=S(=O)(Nc1ccc(Oc2ccc(Cl)cc2Cl)c(Cl)c1)c1c(Cl)cc(Cl)cc1Cl,IC50,[1],1.33 µM
O=S(=O)(Nc1cc(Cl)c(Oc2ccc(Cl)cc2Cl)c(Cl)c1)c1ccccc1,IC50,[1],1.1 µM
O=[N+]([O-])c1ccc(S(=O)(=O)Nc2ccc(Oc3ccc(Cl)cc3Cl)c(Cl)c2)cc1,IC50,[1],2.24 µM
O=S(=O)(Nc1ccc(Oc2ccc3ccccc3c2)c(Cl)c1)c1ccccc1,IC50,[1],> 10 µM
same,inhibition,[2],47%
CC(C)CC(C)c1sccc1NC(=O)c1cn(C)nc1C(F)(F)F (centres undefined) [PENTHIOPYRAD],IC50,[1],1.32 µM
same,inhibition,[3],< 10%
same,IC50,[4],1.19 µM
Cc1cccc(S(=O)(=O)Nc2cc(Cl)c(Oc3c(Cl)cc(Cl)cc3Cl)c(Cl)c2)c1,IC50,[1],0.38 µM
O=S(=O)(Nc1cc(Cl)c(Oc2c(Cl)cc(Cl)cc2Cl)c(Cl)c1)c1ccc(Cl)cc1,IC50,[1],0.63 µM
O=[N+]([O-])c1ccc(S(=O)(=O)Nc2cc(Cl)c(Oc3c(Cl)cc(Cl)cc3Cl)c(Cl)c2)cc1,IC50,[1],1.58 µM
O=S(=O)(Nc1ccc(Oc2ccc(Cl)cc2Cl)cc1)c1c(Cl)cc(Cl)cc1Cl,IC50,[1],1.49 µM
O=S(=O)(Nc1cc(Cl)c(Oc2c(Cl)cc(Cl)cc2Cl)c(Cl)c1)c1ccc(C(F)(F)F)cc1Cl,IC50,[1],1.08 µM
O=S(=O)(Nc1ccc(Oc2ccc(Cl)cc2Cl)c(Cl)c1)c1ccc(Cl)cc1Cl,IC50,[1],1.3 µM
O=S(=O)(Nc1cc(Cl)c(Oc2c(Cl)cc(Cl)cc2Cl)c(Cl)c1)c1c(Cl)cc(Cl)cc1Cl,IC50,[1],0.22 µM
Cc1ccc(S(=O)(=O)Nc2cc(Cl)c(Oc3c(Cl)cc(Cl)cc3Cl)c(Cl)c2)cc1,IC50,[1],1.66 µM
O=S(=O)(Nc1ccc(Oc2ccc(Cl)cc2Cl)cc1)c1ccc(Cl)cc1Cl,IC50,[1],1.62 µM
Cc1cc(C)c(Oc2c(C)cc(NS(=O)(=O)c3ccccc3)cc2C)c(C)c1,IC50,[1],> 10 µM
same,inhibition,[2],3%
COc1ccc(S(=O)(=O)Nc2cc(Cl)c(Oc3c(Cl)cc(Cl)cc3Cl)c(Cl)c2)cc1,IC50,[1],1.87 µM
O=S(=O)(Nc1cc(Cl)c(Oc2ncc(C(F)(F)F)cc2Cl)c(Cl)c1)c1ccccc1,IC50,[1],> 10 µM
same,inhibition,[2],9%
O=S(=O)(Nc1cc(Cl)c(Oc2c(Cl)cc(Cl)cc2Cl)c(Cl)c1)c1ccc(F)cc1,IC50,[1],0.83 µM
O=S(=O)(Nc1ccc(Oc2ccc(Cl)cc2Cl)cc1)c1ccc(C(F)(F)F)cc1Cl,IC50,[1],1.37 µM
CN(C)S(=O)(=O)n1cnc(S(=O)(=O)Nc2cc(Cl)c(Oc3c(Cl)cc(Cl)cc3Cl)c(Cl)c2)n1,IC50,[1],3.2 µM
same,IC50,[4],0.5 µM
same,IC50,[5],35.5 µM
O=S(=O)(Nc1cc(Cl)c(Oc2c(Cl)cc(Cl)cc2Cl)c(Cl)c1)c1ccc(Cl)cc1Cl,IC50,[1],1.03 µM
Cc1ccccc1S(=O)(=O)Nc1cc(Cl)c(Oc2c(Cl)cc(Cl)cc2Cl)c(Cl)c1,IC50,[1],0.8 µM
CO/C=C(/C(=O)OC)c1ccccc1Oc1cc(Oc2ccccc2C#N)ncn1 [AZOXYSTROBIN],inhibition,[6],23%
same,IC50,[1],0.29 µM
same,IC50,[5],0.53 µM
O=S(=O)(Nc1cc(Cl)c(Oc2ccc(Cl)cc2Cl)c(Cl)c1)c1ccc(C(F)(F)F)cc1Cl,IC50,[1],1.17 µM
O=[N+]([O-])c1ccc(S(=O)(=O)Nc2cc(Cl)c(Oc3ccc(Cl)cc3Cl)c(Cl)c2)cc1,IC50,[1],3.57 µM
O=S(=O)(Nc1ccc(Oc2c(Cl)cc(Cl)cc2Cl)c(Cl)c1)c1ccccc1,IC50,[1],> 10 µM
same,inhibition,[2],47%
O=S(=O)(Nc1ccc(Oc2ccc(Cl)cc2Cl)cc1)c1ccccc1,IC50,[1],9.28 µM
O=S(=O)(Nc1cc(Cl)c(Oc2c(Cl)cc(Cl)cc2Cl)c(Cl)c1)c1ccc(C(F)(F)F)cc1,IC50,[1],0.53 µM
O=S(=O)(Nc1cc(Cl)c(Oc2ccc(Cl)cc2Cl)c(Cl)c1)c1ccc(Cl)cc1Cl,IC50,[1],1.38 µM
O=S(=O)(Nc1cc(Cl)c(Oc2ccc3ccccc3c2)c(Cl)c1)c1ccccc1,IC50,[1],> 10 µM
same,inhibition,[2],48%
CC(C)(C)c1ccc(S(=O)(=O)Nc2cc(Cl)c(Oc3c(Cl)cc(Cl)cc3Cl)c(Cl)c2)cc1,IC50,[1],0.99 µM
O=[N+]([O-])c1ccc(S(=O)(=O)Nc2ccc(Oc3ccc(Cl)cc3Cl)cc2)cc1,IC50,[1],4.86 µM
O=S(=O)(Nc1ccc(Oc2ccccc2)cc1)c1ccccc1,IC50,[1],> 10 µM
same,inhibition,[2],32%
O=S(=O)(Nc1cc(Cl)c(Oc2c(Cl)cc(Cl)cc2Cl)c(Cl)c1)c1ccccc1,IC50,[1],0.08 µM
same,IC50,[4],0.51 µM
same,IC50,[5],3.06 µM
O=S(=O)(Nc1cc(F)c(Oc2c(F)cc(F)cc2F)c(F)c1)c1ccccc1,IC50,[1],6.44 µM
same,inhibition,[3],40%
same,IC50,[4],2.02 µM
O=S(=O)(Nc1ccc(Oc2ccc(Cl)cc2Cl)c(Cl)c1)c1ccccc1,IC50,[1],1.98 µM
